# According to patent publication US10227344B2, “CK2 inhibitors, compositions and methods thereof” (Polaris Pharmaceuticals, Inc., priority 2016, dated 2019):
# What was measured:
# Assay type in all cases: cell-based
# SKOV-3 = test: Cancer cell panel, cell viability (resazurin): Ovarian, SKOV-3; conditions: SKOV-3 (Ovarian), 72 hours; labelled drug combined with Example 3
# OVCAR-3 = test: Cancer cell panel, cell viability (resazurin): Ovarian, OVCAR-3; conditions: OVCAR-3 (Ovarian), 72 hours; labelled drug combined with Example 3
# Method: (§1) Cells were plated in 96-well plates and treated for 72 hours with a serially diluted CK2 inhibitor or anti-cancer drug or their combination. The suspension cell lines were treated right after plating, while the adherent cells were allowed to attach overnight prior to the start of the treatment.
# (§2) Cell viability was determined by adding resazurin to cell cultures and measuring fluorescence with a plate reader. Relative cell viability was calculated by dividing the cell viability signal from a test sample by that of a non-treated control. […] Bliss Independence and Highest Single Agent models were used to determine if there is synergy, additivity or antagonism between the CK2 inhibitor and an anti-cancer drug.
# A2780 = test: Cancer cell panel, cell viability (resazurin): Ovarian, A2780; conditions: 72 hours, labelled drug combined with Example 3
# Caov-3 = test: Cancer cell panel, cell viability (resazurin): Ovarian, Caov-3; conditions: Caov-3 (Ovarian), 72 hours; labelled drug combined with Example 3
# Mia-Paca-2 = test: Cancer cell panel, cell viability (resazurin): Pancreatic, Mia-Paca-2; conditions: Mia-Paca-2 (Pancreatic), 72 hours; labelled drug combined with Example 3
# Panc-1 = test: Cancer cell panel, cell viability (resazurin): Pancreatic, Panc-1; conditions: Panc-1 (Pancreatic), 72 hours; labelled drug combined with Example 3
# BxPC3 = test: Cancer cell panel, cell viability (resazurin): Pancreatic, BxPC3; conditions: 72 hours, labelled drug combined with Example 3
# Method: as §1, §2
# HT29 = test: Cancer cell panel, cell viability (resazurin): Colon, HT29; conditions: 72 hours, labelled drug combined with Example 3
# Method: as §1, §2
# Colo205 = test: Cancer cell panel, cell viability (resazurin): Colon, Colo205; conditions: 72 hours, labelled drug combined with Example 3
# Method: as §1, §2
# LoVo = test: Cancer cell panel, cell viability (resazurin): Colon, LoVo; conditions: 72 hours, labelled drug combined with Example 3
# Method: as §1, §2
# DLD-1 = test: Cancer cell panel, cell viability (resazurin): Colon, DLD-1; conditions: DLD-1 (Colon), 72 hours; labelled drug combined with Example 3
# H1299 = test: Cancer cell panel, cell viability (resazurin): NSCLC, H1299; conditions: 72 hours, labelled drug combined with Example 3
# A549 = test: Cancer cell panel, cell viability (resazurin): NSCLC, A549; conditions: 72 hours, labelled drug combined with Example 3
# H460 = test: Cancer cell panel, cell viability (resazurin): NSCLC, H460; conditions: 72 hours, labelled drug combined with Example 3
# H1975 = test: Cancer cell panel, cell viability (resazurin): NSCLC, H1975; conditions: 72 hours, labelled drug combined with Example 3
# H23 = test: Cancer cell panel, cell viability (resazurin): NSCLC, H23; conditions: 72 hours, labelled drug combined with Example 3
# Method: as §1, §2
# H2122 = test: Cancer cell panel, cell viability (resazurin): NSCLC, H2122; conditions: 72 hours, labelled drug combined with Example 3
# SkBr-3 = test: Cancer cell panel, cell viability (resazurin): Breast, SkBr-3; conditions: SkBr-3 (Breast), 72 hours; labelled drug combined with Example 3
# MDA-MB-231 = test: Cancer cell panel, cell viability (resazurin): Breast, MDA-MB-231; conditions: MDA-MB-231 (Breast), 72 hours; labelled drug combined with Example 3
# MDA-MB-157 = test: Cancer cell panel, cell viability (resazurin): Breast, MDA-MB-157; conditions: MDA-MB-157 (Breast), 72 hours; labelled drug combined with Example 3
# BT-20 = test: Cancer cell panel, cell viability (resazurin): Breast, BT-20; conditions: BT-20 (Breast), 72 hours; labelled drug combined with Example 3
# ZR-75-1 = test: Cancer cell panel, cell viability (resazurin): Breast, ZR-75-1; conditions: ZR-75-1 (Breast), 72 hours; labelled drug combined with Example 3
# T47D = test: Cancer cell panel, cell viability (resazurin): Breast, T47D; conditions: 72 hours, labelled drug combined with Example 3
# Method: as §1, §2
# MCF7 = test: Cancer cell panel, cell viability (resazurin): Breast, MCF7; conditions: 72 hours, labelled drug combined with Example 3
# Method: as §1, §2
# ACHN = test: Cancer cell panel, cell viability (resazurin): Renal, ACHN; conditions: 72 hours, labelled drug combined with Example 3
# Method: as §1, §2
# Caki-1 = test: Cancer cell panel, cell viability (resazurin): Renal, Caki-1; conditions: Caki-1 (Renal), 72 hours; labelled drug combined with Example 3
# A375 = test: Cancer cell panel, cell viability (resazurin): Melanoma, A375; conditions: 72 hours, labelled drug combined with Example 3
# SK-MEL-3 = test: Cancer cell panel, cell viability (resazurin): Melanoma, SK-MEL-3; conditions: SK-MEL-3 (Melanoma), 72 hours; labelled drug combined with Example 3
# SK-MEL-24 = test: Cancer cell panel, cell viability (resazurin): Melanoma, SK-MEL-24; conditions: SK-MEL-24 (Melanoma), 72 hours; labelled drug combined with Example 3
# WM-115 = test: Cancer cell panel, cell viability (resazurin): Melanoma, WM-115; conditions: WM-115 (Melanoma), 72 hours; labelled drug combined with Example 3
# U266 = test: Cancer cell panel, cell viability (resazurin): multiple myeloma, U266; conditions: 72 hours, labelled drug combined with Example 3
# RPMI8226 = test: Cancer cell panel, cell viability (resazurin): multiple myeloma, RPMI8226; conditions: 72 hours, labelled drug combined with Example 3
# Ramos = test: Cancer cell panel, cell viability (resazurin): Burkitt's Lymphoma, Ramos; conditions: 72 hours, labelled drug combined with Example 3
# Raji = test: Cancer cell panel, cell viability (resazurin): Burkitt's Lymphoma, Raji; conditions: 72 hours, labelled drug combined with Example 3
# K562 = test: Cancer cell panel, cell viability (resazurin): Leukemia, K562; conditions: 72 hours, labelled drug combined with Example 3
# HL60 = test: Cancer cell panel, cell viability (resazurin): Leukemia, HL60; conditions: 72 hours, labelled drug combined with Example 3
# EOL-1 = test: Cancer cell panel, cell viability (resazurin): Leukemia, EOL-1; conditions: EOL-1 (Leukemia), 72 hours; labelled drug combined with Example 3
# MOLT4 = test: Cancer cell panel, cell viability (resazurin): Leukemia, MOLT4; conditions: 72 hours, labelled drug combined with Example 3
compound,measurement,setting,value
"CCN(CC)CCNC(=O)c1c(C)[nH]c(/C=C2\C(=O)Nc3ccc(F)cc32)c1C [Sunitinib, sunitinib]","synergy, additivity or antagonism of the combination of Example 3 with the anti-cancer drug",SKOV-3,+ (Additive relative to each agent alone (CI = 0.9-1 by Bliss Independence Model and <0.9 by Highest Single Agent Model))
same,"synergy, additivity or antagonism of the combination of Example 3 with the anti-cancer drug",OVCAR-3,− − (Antagonistic relative to each agent alone (CI = 1.2-1.49 by Highest Single Agent Model))
same,"synergy, additivity or antagonism of the combination of Example 3 with the anti-cancer drug",A2780,+ + + (Synergy relative to each agent alone (CI = 0.4-0.74 by Bliss Independence Model))
same,"synergy, additivity or antagonism of the combination of Example 3 with the anti-cancer drug",Caov-3,+ (Additive relative to each agent alone (CI = 0.9-1 by Bliss Independence Model and <0.9 by Highest Single Agent Model))
same,"synergy, additivity or antagonism of the combination of Example 3 with the anti-cancer drug",Mia-Paca-2,+ + (Slight synergy relative to each agent alone (CI = 0.75-0.9 by Bliss Independence Model))
same,"synergy, additivity or antagonism of the combination of Example 3 with the anti-cancer drug",Panc-1,+ + (Slight synergy relative to each agent alone (CI = 0.75-0.9 by Bliss Independence Model))
same,"synergy, additivity or antagonism of the combination of Example 3 with the anti-cancer drug",BxPC3,+ + + (Synergy relative to each agent alone (CI = 0.4-0.74 by Bliss Independence Model))
same,"synergy, additivity or antagonism of the combination of Example 3 with the anti-cancer drug",HT29,+ (Additive relative to each agent alone (CI = 0.9-1 by Bliss Independence Model and <0.9 by Highest Single Agent Model))
same,"synergy, additivity or antagonism of the combination of Example 3 with the anti-cancer drug",Colo205,+ + + + (Strong synergy relative to each agent alone (CI < 0.4 by Bliss Independence Model))
same,"synergy, additivity or antagonism of the combination of Example 3 with the anti-cancer drug",LoVo,+ (Additive relative to each agent alone (CI = 0.9-1 by Bliss Independence Model and <0.9 by Highest Single Agent Model))
same,"synergy, additivity or antagonism of the combination of Example 3 with the anti-cancer drug",DLD-1,+ + (Slight synergy relative to each agent alone (CI = 0.75-0.9 by Bliss Independence Model))
same,"synergy, additivity or antagonism of the combination of Example 3 with the anti-cancer drug",H1299,+ (Additive relative to each agent alone (CI = 0.9-1 by Bliss Independence Model and <0.9 by Highest Single Agent Model))
same,"synergy, additivity or antagonism of the combination of Example 3 with the anti-cancer drug",A549,+ + + (Synergy relative to each agent alone (CI = 0.4-0.74 by Bliss Independence Model))
same,"synergy, additivity or antagonism of the combination of Example 3 with the anti-cancer drug",H460,+ + (Slight synergy relative to each agent alone (CI = 0.75-0.9 by Bliss Independence Model))
same,"synergy, additivity or antagonism of the combination of Example 3 with the anti-cancer drug",H1975,+ + (Slight synergy relative to each agent alone (CI = 0.75-0.9 by Bliss Independence Model))
same,"synergy, additivity or antagonism of the combination of Example 3 with the anti-cancer drug",H23,+ + + (Synergy relative to each agent alone (CI = 0.4-0.74 by Bliss Independence Model))
same,"synergy, additivity or antagonism of the combination of Example 3 with the anti-cancer drug",H2122,+ + (Slight synergy relative to each agent alone (CI = 0.75-0.9 by Bliss Independence Model))
same,"synergy, additivity or antagonism of the combination of Example 3 with the anti-cancer drug",SkBr-3,+ + (Slight synergy relative to each agent alone (CI = 0.75-0.9 by Bliss Independence Model))
same,"synergy, additivity or antagonism of the combination of Example 3 with the anti-cancer drug",MDA-MB-231,+ + (Slight synergy relative to each agent alone (CI = 0.75-0.9 by Bliss Independence Model))
same,"synergy, additivity or antagonism of the combination of Example 3 with the anti-cancer drug",MDA-MB-157,+ + + (Synergy relative to each agent alone (CI = 0.4-0.74 by Bliss Independence Model))
same,"synergy, additivity or antagonism of the combination of Example 3 with the anti-cancer drug",BT-20,+ + (Slight synergy relative to each agent alone (CI = 0.75-0.9 by Bliss Independence Model))
same,"synergy, additivity or antagonism of the combination of Example 3 with the anti-cancer drug",ZR-75-1,+ + (Slight synergy relative to each agent alone (CI = 0.75-0.9 by Bliss Independence Model))
same,"synergy, additivity or antagonism of the combination of Example 3 with the anti-cancer drug",T47D,+ (Additive relative to each agent alone (CI = 0.9-1 by Bliss Independence Model and <0.9 by Highest Single Agent Model))
same,"synergy, additivity or antagonism of the combination of Example 3 with the anti-cancer drug",MCF7,+ (Additive relative to each agent alone (CI = 0.9-1 by Bliss Independence Model and <0.9 by Highest Single Agent Model))
same,"synergy, additivity or antagonism of the combination of Example 3 with the anti-cancer drug",ACHN,+ (Additive relative to each agent alone (CI = 0.9-1 by Bliss Independence Model and <0.9 by Highest Single Agent Model))
same,"synergy, additivity or antagonism of the combination of Example 3 with the anti-cancer drug",Caki-1,+ (Additive relative to each agent alone (CI = 0.9-1 by Bliss Independence Model and <0.9 by Highest Single Agent Model))
same,"synergy, additivity or antagonism of the combination of Example 3 with the anti-cancer drug",A375,+ + (Slight synergy relative to each agent alone (CI = 0.75-0.9 by Bliss Independence Model))
same,"synergy, additivity or antagonism of the combination of Example 3 with the anti-cancer drug",SK-MEL-3,+ (Additive relative to each agent alone (CI = 0.9-1 by Bliss Independence Model and <0.9 by Highest Single Agent Model))
same,"synergy, additivity or antagonism of the combination of Example 3 with the anti-cancer drug",SK-MEL-24,+ + + (Synergy relative to each agent alone (CI = 0.4-0.74 by Bliss Independence Model))
same,"synergy, additivity or antagonism of the combination of Example 3 with the anti-cancer drug",WM-115,+ + (Slight synergy relative to each agent alone (CI = 0.75-0.9 by Bliss Independence Model))
same,"synergy, additivity or antagonism of the combination of Example 3 with the anti-cancer drug",U266,+ (Additive relative to each agent alone (CI = 0.9-1 by Bliss Independence Model and <0.9 by Highest Single Agent Model))
same,"synergy, additivity or antagonism of the combination of Example 3 with the anti-cancer drug",RPMI8226,+ + + + (Strong synergy relative to each agent alone (CI < 0.4 by Bliss Independence Model))
same,"synergy, additivity or antagonism of the combination of Example 3 with the anti-cancer drug",Ramos,+ + (Slight synergy relative to each agent alone (CI = 0.75-0.9 by Bliss Independence Model))
same,"synergy, additivity or antagonism of the combination of Example 3 with the anti-cancer drug",Raji,+ + (Slight synergy relative to each agent alone (CI = 0.75-0.9 by Bliss Independence Model))
same,"synergy, additivity or antagonism of the combination of Example 3 with the anti-cancer drug",K562,+ + + (Synergy relative to each agent alone (CI = 0.4-0.74 by Bliss Independence Model))
same,"synergy, additivity or antagonism of the combination of Example 3 with the anti-cancer drug",HL60,+ + (Slight synergy relative to each agent alone (CI = 0.75-0.9 by Bliss Independence Model))
same,"synergy, additivity or antagonism of the combination of Example 3 with the anti-cancer drug",EOL-1,+ + (Slight synergy relative to each agent alone (CI = 0.75-0.9 by Bliss Independence Model))
same,"synergy, additivity or antagonism of the combination of Example 3 with the anti-cancer drug",MOLT4,+ (Additive relative to each agent alone (CI = 0.9-1 by Bliss Independence Model and <0.9 by Highest Single Agent Model))
